Source: ChEMBL document CHEMBL4364342, “Structural and Molecular Insight into Resistance Mechanisms of First Generation cMET Inhibitors” (ACS Med Chem Lett, 2019)

Legend:
[1] = biological target: T1, Hepatocyte growth factor receptor (Homo sapiens, UniProt P08581, D1228V); test: Inhibition of N-terminal NH-tagged and avi-tagged dephosphorylated c-MET D1228V mutant (956 to 1390 residues) (unknown origin) expressed in sf21 cells using poly (Glu,Tyr) as substrate measured after 60 mins by ADP-Glo kinase assay
[2] = biological target: T1, Hepatocyte growth factor receptor; test: Inhibition of c-MET D1228V mutant phosphorylation at Tyr1234/Tyr1235 residues in CRISPR/Cas9 modified human NCI-H1993 cells incubated for 4 hrs by HTRF assay; format: cell-based
NCI-H1993 [3] = test: Resistance index, ratio of GI50 for CRISPR/Cas9 modified human NCI-H1993 cells harboring cMET D1228V mutant to GI50 for wild type human NCI-H1993 cells by cell-titer glo luminescent cell viability assay; format: functional
NCI-H1993 [4] = test: Growth inhibition of CRISPR/Cas9 modified human NCI-H1993 cells harboring cMET D1228V mutant incubated for 3 days by cell titer-glo luminescent cell viability assay; format: functional; settings: NCI-H1993, 72 h
[5] = biological target: T2, Hepatocyte growth factor receptor (Homo sapiens, UniProt P08581); test: Inhibition of wild type N-terminal NH-tagged and avi-tagged dephosphorylated c-MET (956 to 1390 residues) (unknown origin) expressed in sf21 cells using poly (Glu,Tyr) as substrate measured after 60 mins by ADP-Glo kinase assay
NCI-H1993 [6] = test: Growth inhibition of wild type human NCI-H1993 cells incubated for 3 days by cell titer-glo luminescent cell viability assay; format: functional; settings: NCI-H1993, 72 h
[7] = biological target: T2, Hepatocyte growth factor receptor; test: Inhibition of c-Met phosphorylation at Tyr 1234/Tyr1235 residues in human NCI-H1993 cells incubated for 4 hrs by HTRF assay; format: cell-based

SMILES	IC50 [1] [nM]	IC50 [2] [nM]	RatioGI50 (NCI-H1993 [3])	GI50 (NCI-H1993 [4]) [nM]	IC50 [5] [nM]	GI50 (NCI-H1993 [6]) [nM]	IC50 [7] [nM]
C[C@@H](c1ccc2nccn2c1)n1nnc2ncc(-c3cnn(C)c3)nc21 [SAVOLITINIB]	676	> 31600	> 800	8320	< 2.51	9.33	2
CCOc1ccn(-c2ccc(F)cc2)c(=O)c1C(=O)Nc1ccc(Oc2ccnc(N)c2Cl)c(F)c1 [BMS-777607]	< 2.51	12.3 to 214			< 2.51		12.3 to 214
COc1cc2c(Oc3ccc(NC(=O)C4(C(=O)Nc5ccc(F)cc5)CC4)cc3F)ccnc2cc1OCCCN1CCOCC1 [FORETINIB]				52.5		61.7	
